Measured values reported in patent US10005809B2, “Bio-active antioxidants from plant foods for nutraceutical product development” (priority 2013, dated 2018).
Several values for one entry are separate records, joined by “and”; a condition that tells them apart may be missing. Identical values can stand only once. Counter-ions that a name gives are not always drawn.

Columns and labels:
[1] = Trolox Equivalents Antioxidant Capacity (TEAC) assay; type: biochemical; settings: for TEAC (Trolox equivalent antioxidant capacity) ± SEM: compounds 10-1000 μM, ABTS 0.5 mM, 734 nm, 6 min, ratio of slopes, no unit, n = 3; for antioxidant activity (in words): TEAC measurements
Protocol: Trolox Equivalents Antioxidant Capacity (TEAC) Assay of Compounds (1-11)
Pure compounds and standards (conc. Range 10-1000 μM) were reacted with the fixed concentration of ABTS (0.5 mM) according to the reported method. The decrease in absorbance at 734 nm was recorded 6 min after the addition of pro-formed ABTS radical solution. Standards including Trolox, quercetin, kaempferol and ascorbic acid were used for the comparison of structure-activity relationship with the isolated compounds. The calculation of TEAC values was obtained by plotting the graphs between various concentrations of compounds and percent radical scavenging activity. Slope (m) was then calculated by using the linear regression (y=mx+c) of the plotted curve. Ratio of the value of slope of Trolox with that of isolated compounds was calculated to get TEAC value as follows; TEACCompound=Slope of Trolox/Slope of compound (3)
The TEAC assay was used to assess the power of reduction of total amount of ABTS^•+ radicals formed during the reaction by bioactive metaboilite. The ABTS is intensely colored and when it reacts with antioxidant the color disappeared. […] In present procedure, the ratio of the slope of concentrations of standard and test compound is taken, therefore TEAC is considered as relative value with no unit. Trolox used as standard antioxidant with TEAC value as 1.

[2] = Liver function test (LFT) and lipid profile of serum after oral extract feeding; type: in vivo, Male Wistar rats; settings: rat serum after two weeks oral feeding; mean ± SEM, n = 6
From the text: Rats were housed in polycarbonate cages, containing hardwood chip bedding. A standard pallet diet and water was made available ad-libitum. A 12 hr light/dark cycle was maintained throughout tbe study. After 14 days of acclimatization, the rats were randomized, and divided to 6 animals in each group: control, test, and positive control (Trolox). Oral doses of extracts were given after every alternate day and their physical status and weight changes were monitored daily. Control group has received an equal volume of normal saline for the same period of time. The experiment was terminated after two weeks of feeding. Under mild anesthetic conditions, blood was drawn via heart puncture. Blood was collected in clot activator plastic tubes, and allowed to clot for 30-40 minutes. Serum was separated by centrifugation and then stored at -20° C. till antioxidant status and other biochemical analysis were carried out. LPT and Lipid Profile The diagnostic facilities of […]), University of Karachi, were used for the biochemical analysis of serum samples. Lipid profile includes cholesterol, triglycerides, high density lipoproteins (HDL), low density lipoproteins (LDL), and LPT including bilirubin (total and direct), enzymes such as alanine aminotransferase (ALT), alkaline phosphatase (ALP), and gamma […] (GGT), were measured. These assays were performed by fully automated chemistry analyzer (Hitachi 902, Roche Diagnostics, Japan) with standardized kits, calibrators, and controls. Total lipid was estimated manually by calorimetric method of phosphovanilline on a photometer (Clinicon 4010, Boehringer […], Germany).

Compound: COc1cc(-c2oc3cc(O)cc(O[C@@H]4O[C@H](COC(=O)CC(C)(O)CC(=O)O)[C@@H](O)[C@H](O)[C@H]4O)c3c(=O)c2O)ccc1O (stereo partly drawn) [compound 1, isorhamnetol 5-O-[6″-(3-hydroxy-3-methyl glutarate)] β-D-glucoside]
- TEAC (Trolox equivalent antioxidant capacity) ± SEM [1]: 0.88 ± 0.21

Compound: O=c1c(O)c(-c2ccc(O)cc2)oc2cc(O)cc(O)c12 [Kaempferol, reference compound]
- TEAC (Trolox equivalent antioxidant capacity) ± SEM [1]: 0.97 ± 0.27
- TEAC (Trolox equivalent antioxidant capacity) ± SEM ([1]; listed as keampferol): 0.97

Compound: kaempferol 3-O-β-D-glucoside [compound 2]
- TEAC (Trolox equivalent antioxidant capacity) ± SEM [1]: 0.80 ± 0.31

Compound: O=C(O)c1ccc(O)c(O)c1 [compound 9, 3,4-dihydroxybenzoic acid]
- TEAC (Trolox equivalent antioxidant capacity) ± SEM [1]: 0.95 ± 0.01

Compound: Cc1c(C)c2c(c(C)c1O)CCC(C)(C(=O)O)O2 (centres unmarked) [Trolox, 6-hydroxy-2,5,7,8-tetramethylchroman-2-carboxylic acid]
- ALP [2]: 212.54 ± 24.51 U/L
- ALT/SGPT [2]: 45.5 ± 5.49 U/L
- Chol [2]: 56.75 ± 2.07 mg/dL
- Direct Bilirubin [2]: 0.085 ± 0.007 mg/dL
- GGT [2]: 4.25 ± 0.74 U/L
- HDL-c [2]: 55 ± 1.97 mg/dL
- Indirect Bilirubin [2]: 0.43 ± 0.03 mg/dL
- LDL-c [2]: 14.25 ± 0.96 mg/dL
- TAG [2]: 40 ± 1.54 mg/dL
- Total Bilirubin [2]: 0.51 ± 0.02 mg/dL
- Total Lipid [2]: 260 ± 5 mg/dL
- VLDL [2]: 8.5 ± 0.25 mg/dL
- TEAC (Trolox equivalent antioxidant capacity) ± SEM [1]: 1

Compound: COC(=O)CC(O)(CC(=O)OC)C(=O)OC [compound 11, trimethyl citrate]
- antioxidant activity (in words) [1]: moderate to low antioxidant activity
- TEAC (Trolox equivalent antioxidant capacity) ± SEM [1]: 0.58±0.12

Compound: O=c1c(O[C@@H]2O[C@H](CO)[C@@H](O)[C@H](O)[C@H]2O)c(-c2ccc(O)c(O)c2)oc2cc(O)cc(O)c12 [compound 4, quercetin 3-O-β-D-glucoside]
- TEAC (Trolox equivalent antioxidant capacity) ± SEM [1]: 0.82±0.23 and 0.82 ± 0.32

Compound: C[C@H]1O[C@@H](Oc2c(-c3ccc(O)c(O)c3)oc3cc(O)cc(O)c3c2=O)[C@@H](O)[C@@H](O)[C@@H]1O [compound 5, quercetin 3-O-β-D-rhamnoside]
- TEAC (Trolox equivalent antioxidant capacity) ± SEM [1]: 0.82 ± 0.23

Compound: O=Cc1ccc(CO)o1 [compound 8, 5-hydroxymethylfurfural]
- TEAC (Trolox equivalent antioxidant capacity) ± SEM [1]: 1.05±0.24

Compound: myricetin 3-O-β-D-xyloside [compound 7]
- TEAC (Trolox equivalent antioxidant capacity) ± SEM [1]: 0.92 ± 0.35
- TEAC (Trolox equivalent antioxidant capacity) ± SEM ([1]; listed as myricetin): 0.92±0.35

Compound: O=c1c(O)c(-c2ccc(O)c(O)c2)oc2cc(O)cc(O)c12 [Quercetin, reference compound]
- TEAC (Trolox equivalent antioxidant capacity) ± SEM [1]: 1.07 ± 0.23
- TEAC (Trolox equivalent antioxidant capacity) ± SEM ([1]; listed as quercetin): 1.07±0.23

Compound: O=C(/C=C/c1ccc(O)cc1)O[C@H]1C(Oc2c(-c3ccc(O)c(O)c3)oc3cc(O)cc(O)c3c2=O)O[C@H](CO)[C@@H](O)[C@@H]1O (some centres unmarked) [compound 6, quercetin 3-O-(2-p-coumaroylglucoside)]
- TEAC (Trolox equivalent antioxidant capacity) ± SEM [1]: 0.36 ± 0.19

Compound: 1,5-dimethyl citrate [compound 10]
- antioxidant activity (in words) [1]: moderate to low antioxidant activity
- TEAC (Trolox equivalent antioxidant capacity) ± SEM [1]: 0.67±0.31

Compound: C[C@H]1O[C@@H](Oc2c(-c3ccc(O)cc3)oc3cc(O)cc(O)c3c2=O)[C@@H](O)[C@@H](O)[C@@H]1O [compound 3, kaempferol 3-O-β-D-rhamnoside]
- TEAC (Trolox equivalent antioxidant capacity) ± SEM [1]: 0.91 ± 0.21

Compound: O=C1O[C@H]([C@@H](O)CO)C(O)=C1O [Ascorbic acid, reference compound]
- TEAC (Trolox equivalent antioxidant capacity) ± SEM [1]: 1.14 ± 0.29
